Assay results taken from patent US12227498B2, “Heterocyclic amine derivative and pharmaceutical composition comprising same” (Daewoong Pharmaceutical Co., Ltd., priority 2018, dated 2025).
pIC50: −log10 of the molar value.

Assays:
[1] = molecular target: T1, ITK (Homo sapiens, UniProt Q08881); assay: Inhibitory activity against ITK, ADP-Glo + ITK Kinase enzyme system kit (Promega); assay type: biochemical; settings: ITK enzyme 0.4 ng/μl; 15 min preincubation at room temperature; 1 hour at 30° C.; luminescence; duplicate
T1 construct: purchased Promega Corporation
T1 sequence (Q08881 1-620): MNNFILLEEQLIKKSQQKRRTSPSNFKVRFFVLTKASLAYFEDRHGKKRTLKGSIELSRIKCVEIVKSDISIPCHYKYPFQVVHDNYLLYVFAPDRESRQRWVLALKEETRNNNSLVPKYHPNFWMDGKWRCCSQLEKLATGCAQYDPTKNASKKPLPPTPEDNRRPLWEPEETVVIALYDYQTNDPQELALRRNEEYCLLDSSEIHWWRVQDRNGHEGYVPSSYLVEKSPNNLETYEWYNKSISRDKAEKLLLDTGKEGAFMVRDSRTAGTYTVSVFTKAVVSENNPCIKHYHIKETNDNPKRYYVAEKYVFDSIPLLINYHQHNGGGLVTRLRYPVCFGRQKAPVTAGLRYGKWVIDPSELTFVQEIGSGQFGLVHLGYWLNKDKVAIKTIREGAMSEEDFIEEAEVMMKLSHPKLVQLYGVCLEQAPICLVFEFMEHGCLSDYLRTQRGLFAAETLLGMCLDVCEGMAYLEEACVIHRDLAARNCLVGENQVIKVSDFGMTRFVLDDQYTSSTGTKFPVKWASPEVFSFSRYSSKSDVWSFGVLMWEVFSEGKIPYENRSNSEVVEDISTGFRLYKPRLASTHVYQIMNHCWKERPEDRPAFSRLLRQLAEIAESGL
Experimental: (§1) Inhibitory activities against BTK and ITK were measured for the compounds prepared in the above Examples as follows.
The inhibitory activity against ITK was evaluated using ‘ADP-Glo™+ITK Kinase enzyme system’ kit (Promega Corporation). […] To the plate on which reactions were completed, 5 μl of substrate and 5 μl of ATP prepared so as to have a final concentration of […] were added and then allowed to react at 30° C. for 1 hour. All wells of the plate were treated with 25 μl of ADP-Glo™ reagent and then allowed to react at 30° C. for 40 minutes. After that, all wells were treated with 50 μl of kinase detection buffer, and then allowed to react at 30° C. for 30 minutes under light shielding conditions. For the plate on which all reactions were completed, luminescence was measured and the results were calculated. Evaluation was carried out in duplicate, and negative control and positive control were calculated depending on whether or not the enzyme was added without treatment of the compound. The IC50 was calculated based on the calculated values.

[2] = molecular target: T2, BTK (Homo sapiens, UniProt Q06187); assay: Inhibitory activity against BTK, ADP-Glo + BTK Kinase enzyme system kit (Promega); assay type: biochemical; settings: BTK enzyme 1 ng/μl; ATP 10 µM; 15 min preincubation at room temperature; 1 hour at 30° C.; luminescence; duplicate
T2 construct: purchased Promega Corporation
T2 sequence (Q06187 whole entry): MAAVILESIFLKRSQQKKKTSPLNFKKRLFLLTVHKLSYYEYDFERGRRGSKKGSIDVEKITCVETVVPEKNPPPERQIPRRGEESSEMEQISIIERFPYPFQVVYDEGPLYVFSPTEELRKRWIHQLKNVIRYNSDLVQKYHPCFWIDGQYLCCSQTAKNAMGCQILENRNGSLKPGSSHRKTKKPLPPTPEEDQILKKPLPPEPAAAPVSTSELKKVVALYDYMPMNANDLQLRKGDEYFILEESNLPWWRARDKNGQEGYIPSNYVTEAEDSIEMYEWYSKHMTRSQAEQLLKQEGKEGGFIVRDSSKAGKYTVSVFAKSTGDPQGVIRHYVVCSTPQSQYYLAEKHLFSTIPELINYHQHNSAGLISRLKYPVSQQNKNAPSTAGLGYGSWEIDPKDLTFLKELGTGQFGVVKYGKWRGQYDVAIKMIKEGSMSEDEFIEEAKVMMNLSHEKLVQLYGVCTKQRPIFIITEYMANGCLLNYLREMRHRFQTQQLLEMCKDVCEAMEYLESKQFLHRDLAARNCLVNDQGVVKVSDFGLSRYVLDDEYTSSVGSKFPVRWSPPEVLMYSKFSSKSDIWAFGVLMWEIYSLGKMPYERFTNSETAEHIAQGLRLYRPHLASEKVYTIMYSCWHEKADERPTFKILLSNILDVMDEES
Experimental: as §1
The inhibitory activities against BTK were evaluated using ‘ADP-Glo™+BTK Kinase enzyme system’ kit (Promega Corporation). […] 5 μl of substrate and 5 μl of ATP prepared so as to have a final concentration of 10 µM were added to the plate on which reactions were completed, and then allowed to react at 30° C. for 1 hour. All wells of the plate were treated with 25 μl of ADP-Glo™ reagent and allowed to react at 30° C. for 40 minutes. After that, all wells were treated with 50 μl of kinase detection buffer, and then reacted at 30° C. for 30 minutes under light shielding conditions. For the plate on which all reactions were completed, luminescence was measured and the results were calculated. Evaluation was carried out in duplicate, and negative control and positive control were calculated depending on whether or not the enzyme was added without treatment of the compound. The IC50 was calculated based on the calculated values.

SMILES	pIC50 [1]	pIC50 [2]
CC#CC(=O)N1CCC[C@H](Nc2cc(CN3CCOCC3)cc(Nc3ncc(C)s3)n2)C1 [Example 18, (S)-1-(3-((6-((5-methylthiazol-2-yl)amino)-4-(morpholinomethyl)pyridin-2-yl)amino)piperidin-1-yl) but-2-yn-1-one]	7.30	8.28
C=CC(=O)N1CC[C@@H](Nc2cc(CN3CCOCC3)cc(Nc3ncc(C)s3)n2)C1 [Example 6, (R)-1-(3-((6-((5-methylthiazol-2-yl)amino)-4-(morpholinomethyl)pyridin-2-yl)amino)pyrrolidin-1-yl) prop-2-en-1-one]	7.44	7.56
C=CC(=O)N1CCC[C@H](Nc2nc(Nc3ncc(C)s3)cc(CN3CCOCC3)c2F)C1 [Example 52, (S)-1-(3-(3-fluoro-6-(5-methylthiazol-2-ylamino)-4-(morpholinomethyl)pyridin-2-ylamino)piperidin-1-yl) prop-2-en-1-one]	~6.00	~6.00
C=CC(=O)N1CCC[C@@H](Oc2cc(CN3CCOCC3)cc(Nc3ncc(C)s3)n2)C1 [Example 16, (R)-1-(3-((6-((5-methylthiazol-2-yl)amino)-4-(morpholinomethyl)pyridin-2-yl)oxy)piperidin-1-yl) prop-2-en-1-one]	< 6.00	8.96
CC#CC(=O)N1CCC[C@H](Nc2cc(OC3CCN(C)CC3)cc(Nc3ncc(C)s3)n2)C1 [Example 41, (S)-1-(3-((4-((1-methylpiperidin-4-yl)oxy)-6-((5-methylthiazol-2-yl)amino)pyridin-2-yl)amino)piperidin-1-yl) but-2-yn-1-one]	6.89	8.02
C=CC(=O)N1CCC[C@H](Nc2cc(CN3CCOCC3)cc(Nc3ccccn3)n2)C1 [Example 53, (S)-1-(3-(4-(morpholinomethyl)-6-(pyridin-2-ylamino)pyridin-2-ylamino)piperidin-1-yl) prop-2-en-1-one]	7.37	8.11
Cc1cnc(Nc2cc(CN3CCOCC3)cc(N[C@H]3CCCN(C(=O)CCCl)C3)n2)s1 [Example 45, (S)-3-chloro-1-(3-((6-((5-methylthiazol-2-yl)amino)-4-(morpholinomethyl)pyridin-2-yl)amino)piperidin-1-yl) propan-1-one]	7.04	7.51
C=CC(=O)N1CCC[C@H](Oc2cc(CN3CCOCC3)cc(Nc3ncc(C)s3)n2)C1 [Example 15, (S)-1-(3-((6-((5-methylthiazol-2-yl)amino)-4-(morpholinomethyl)pyridin-2-yl)oxy)piperidin-1-yl) prop-2-en-1-one]	7.33	8.64
C=CC(=O)N1CCC[C@H](Nc2cc(CN3CCOCC3)cc(Nc3cc(Cl)[nH]n3)n2)C1 [Example 50, (S)-1-(3-(6-(5-chloro-1H-pyrazol-3-ylamino)-4-(morpholinomethyl)pyridin-2-ylamino)piperidin-1-yl) prop-2-en-1-one]	~6.00	~6.00
C=CC(=O)N1CCC(Oc2cc(CN3CCOCC3)cc(Nc3ncc(C)s3)n2)C1 (centres unmarked) [Example 10, 1-(3-((6-((5-methylthiazol-2-yl)amino)-4-(morpholinomethyl)pyridin-2-yl)oxy)pyrrolidin-1-yl) prop-2-en-1-one]	< 7.40	8.62
C=CC(=O)N1CCC[C@H](Nc2cc(CN3CCOCC3)cc(Nc3nccs3)n2)C1 [Example 51, (S)-1-(3-(4-(morpholinomethyl)-6-(thiazol-2-ylamino)pyridin-2-ylamino)piperidin-1-yl) prop-2-en-1-one]	~6.00	~6.00

Now those with a higher pIC50 [1], led by results:

pIC50 [1]	pIC50 [2]	SMILES
7.50	8.28	Cc1cnc(Nc2cc(CN3CCOCC3)cc(N[C@H]3CCCN(C(=O)/C=C/Cl)C3)n2)s1 [Example 46, (S,E)-3-chloro-1-(3-(6-(5-methylthiazol-2-ylamino)-4-(morpholinomethyl)pyridin-2-ylamino)piperidin-1-yl) prop-2-en-1-one]
7.50	8.06	C=CC(=O)N1CCC2CCN(c3cc(CN4CCOCC4)cc(Nc4ncc(C)s4)n3)CC21 (centres unmarked) [Example 28, 1-(6-(6-((5-methylthiazol-2-yl)amino)-4-(morpholinomethyl)pyridin-2-yl)octahydro-1H-pyrrolo[2,3-c]pyridin-1-yl) prop-2-en-1-one]
7.75	8.66	C=CC(=O)N1CCC[C@H](N(C)c2cc(CN3CCOCC3)cc(Nc3ncc(C)s3)n2)C1 [Example 26, (S)-1-(3-(methyl (6-((5-methylthiazol-2-yl)amino)-4-(morpholinomethyl)pyridin-2-yl)amino)piperidin-1-yl) prop-2-en-1-one]
7.87	8.68	C=CC(=O)N1CCC[C@H](Nc2cc(C)cc(Nc3ncc(C)s3)n2)C1 [Example 35, (S)-1-(3-((4-methyl-6-((5-methylthiazol-2-yl)amino)pyridin-2-yl)amino)piperidin-1-yl) prop-2-en-1-one]
8.04	7.99	C=CC(=O)N1CCC(Nc2cc(CN3CCOCC3)cc(Nc3ncc(C)s3)n2)CC1 [Example 3, 1-(4-((6-((5-methylthiazol-2-yl)amino)-4-(morpholinomethyl)pyridin-2-yl)amino)piperidin-1-yl) prop-2-en-1-one]
8.05	8.21	C=CC(=O)N1CCC[C@H](Nc2cc(CN3CCN(CCCN)CC3)cc(Nc3ncc(C)s3)n2)C1 [Example 47, (S)-1-(3-(4-((4-(3-aminopropyl)piperazin-1-yl)methyl)-6-(5-methylthiazol-2-vlamino)pyridin-2-vlamino)piperidin-1-yl) prop-2-en-1-one]
8.41	8.74	C=CC(=O)N1CCC[C@H](Nc2cc(OC3CCN(C)CC3)cc(Nc3ncc(C)s3)n2)C1 [Example 33, (S)-1-(3-((4-((1-methylpiperidin-4-yl)oxy)-6-((5-methylthiazol-2-yl)amino)pyridin-2-yl)amino)piperidin-1-yl) prop-2-en-1-one]
8.46	8.44	C=CC(=O)N1CC[C@H](Nc2cc(CN3CCOCC3)cc(Nc3ncc(C)s3)n2)C1 [Example 7, (S)-1-(3-((6-((5-methylthiazol-2-yl)amino)-4-(morpholinomethyl)pyridin-2-yl)amino)pyrrolidin-1-yl) prop-2-en-1-one]
8.68	8.80	C=CC(=O)N1CCC[C@H](Nc2cc(CN3CCN(C)CC3)cc(Nc3ncc(C)s3)n2)C1 [Example 43]
8.70	8.70	C=CC(=O)N1CCCC(Oc2cc(CN3CCOCC3)cc(Nc3ncc(C)s3)n2)C1 (centres unmarked) [Example 12, 1-(3-((6-((5-methylthiazol-2-yl)amino)-4-(morpholinomethyl)pyridin-2-yl)oxy)piperidin-1-yl) prop-2-en-1-one]
8.72	8.49	C=CC(=O)N1CCC[C@H](Nc2cc(Cc3ccccn3)cc(Nc3ncc(C)s3)n2)C1 [Example 37, (S)-1-(3-((6-((5-methylthiazol-2-yl)amino)-4-(pyridin-2-ylmethyl)pyridin-2-yl)amino)piperidin-1-yl) prop-2-en-1-one]
8.74	8.41	C=CC(=O)N1CCC[C@H](Nc2cc(Cc3cccnc3)cc(Nc3ncc(C)s3)n2)C1 [Example 36, (S)-1-(3-((6-((5-methylthiazol-2-yl)amino)-4-(pyridin-3-ylmethyl)pyridin-2-yl)amino)piperidin-1-yl) prop-2-en-1-one]
8.77	8.96	C=CC(=O)N1CCC[C@H](Nc2cc(CN3CCN(CCC#N)CC3)cc(Nc3ncc(C)s3)n2)C1 [Example 34, (S)-3-(4-((2-((1-acryloylpiperidin-3-yl)amino)-6-((5-methylthiazol-2-yl)amino)pyridin-4-yl)methyl)piperazin-1-yl) propanenitrile]
8.96	8.96	C=CC(=O)N1CCC[C@H](Nc2cc(CN3CCN(C(C)=O)CC3)cc(Nc3ncc(C)s3)n2)C1 [Example 20]
